Measurements taken from patent US20080182895A1 (priority 2006, published 2008).
≈ marks a conversion by molar mass, not a printed value. Where “and” joins values, the source holds several entries; their conditions need not be identical. Equal values may be shown once.

Columns and labels:
1b, BB7-C316N replicon = assay: Replicon variant assay (separate laboratory); format: cell-based; details: Hepatitis C virus, read-out: HCV RNA EC50 (nM) ± SD
Method: pBB7-replicon variant DNAs were linearized with Sca I, and in vitro transcription was performed using Ambion's […]® T7 High Yield Transcription kit (Austin, Tex.). Purified RNA transcripts were electroporated into Huh-7 cells in quadruplicates using a Biorad GENE PULSER® Electroporation System (Setting: 270V, 950 μF) (Hercules, Calif.). Stably transfected replicon variant cell lines were initially selected with 0.25 mg/ml G418 and stepped up to 1 mg/ml before further testing. One cell plate was stained with Crystal Violet to visualize the number of colonies and determine the colony formation efficiency. […]
The contribution of individual amino acid changes on drug resistance was assessed in replicon variants containing single amino acid mutations in NS5B in the background of the genotype 1b, BB7 adaptive replicon (Blight et al. (2000) Science 290:1972-74).
Drug susceptibility of the replicon-containing cells to various compounds was evaluated as described previously (Howe et al. (2004) Antimicrobial Agents Chem. 48:4813-21). […] The levels of HCV, glyceraldehyde 3-phosphate dehydrogenase (GAPDH) and ribosomal (rRNA) RNAs were quantified using TAQMAN® (PE Applied Biosystems, Foster City, Calif.) reverse transcriptase PCR reactions. […] The RNA sample was sent to National Genetics Institute to quantify HCV RNA. […]

physchem = details: plasma or biological fluid
[1] = target: T1, HCV NS5B enzyme BB7-I363V (Hepatitis C virus genotype 1b, UniProt Q9WMX2, I2782V); assay: NS5B polymerase biochemical assay
T1 construct: To prepare expression plasmid NS5B-BB7dCT21-His(1363V); His (C); made in house; host or cells: E. coli
Method: (§1) All NS5B enzymes were expressed and purified according to the protocol for NS5B-BB7dCT21-His as described (Howe et al. (2004) Antimicrobial Agents Chem. 48:4813-21). Briefly, expression plasmids were transformed into E. coli cells and NS5B expression was initiated by the addition of isopropyl-beta-D-thiogalactopyranoside (IPTG). After 4 to 6 hours of incubation the cells were harvested and lysed. NS5B enzymes were purified by chromatography using a nickel affinity column (Talon, B D Biosciences, Clontech Laboratories, Inc., Mountain View, Calif.)) followed by a cation exchange column (Poros H S, Applied Biosystems, Foster City, Calif.).

[2] = test system: HCV NS5B enzyme BB7-M414I; assay: NS5B polymerase biochemical assay; parameters: species or system Hepatitis C virus genotype 1b; details: BB7-M414I vs BB7 (C316)
Method: as §1

HCV NS5B enzyme BK-N316C = target: T2, HCV NS5B enzyme BK-N316C (Hepatitis C virus genotype 1b, UniProt P26663, N2735C); assay: NS5B polymerase biochemical assay
T2 construct: the NS5B enzyme derived from the genotype 1b BK isolate; His (C); made in house; host or cells: E. coli
Method: as §1

[3] = test system: HCV NS5B enzyme BB7-C316Y; assay: NS5B polymerase biochemical assay; parameters: species or system Hepatitis C virus genotype 1b; details: BB7-C316Y vs BB7 (C316)
Method: as §1

[4] = test system: HCV NS5B enzyme BB7-M414V; assay: NS5B polymerase biochemical assay; parameters: species or system Hepatitis C virus genotype 1b; details: BB7-M414V vs BB7 (C316)
Method: as §1

[5] = target: T3, HCV NS5B enzyme BB7-M414V (Hepatitis C virus genotype 1b, UniProt Q9WMX2, M2833V); assay: NS5B polymerase biochemical assay
T3 construct: NS5B-BB7dCT21-His(M414T/V/I); His (C); made in house; host or cells: E. coli
Method: as §1

[6] = target: T4, HCV NS5B enzyme BB7-C316F (Hepatitis C virus genotype 1b, UniProt Q9WMX2, C2735F); assay: NS5B polymerase biochemical assay
T4 construct: NS5B-BB7dCT21-His(C316F/S/Y/N); His (C); made in house; host or cells: E. coli
Method: as §1

[7] = target: T5, HCV NS5B enzyme BB7-M414I (Hepatitis C virus genotype 1b, UniProt Q9WMX2, M2833I); assay: NS5B polymerase biochemical assay
T5 construct: To prepare expression plasmid NS5B-BB7dCT21-His(M414I); His (C); made in house; host or cells: E. coli
Method: as §1

[8] = target: T6, HCV NS5B enzyme BB7-C316N (Hepatitis C virus genotype 1b, UniProt Q9WMX2, C2735N); assay: NS5B polymerase biochemical assay
T6 construct: To prepare expression plasmid NS5B-BB7dCT21-His(C316N); His (C); made in house; host or cells: E. coli
Method: as §1

[9] = test system: HCV NS5B enzyme BB7-C316N; assay: NS5B polymerase biochemical assay; parameters: species or system Hepatitis C virus genotype 1b; details: BB7-C316N vs BB7 (C316)
Method: as §1

[10] = target: T7, HCV NS5B enzyme BK (N316) (Hepatitis C virus genotype 1b, UniProt P26663); assay: NS5B polymerase biochemical assay
T7 construct: the NS5B enzyme derived from the genotype 1b BK isolate; His (C); made in house; host or cells: E. coli
Method: as §1

[11] = test system: HCV NS5B enzyme BB7-C316F; assay: NS5B polymerase biochemical assay; parameters: species or system Hepatitis C virus genotype 1b; details: BB7-C316F vs BB7 (C316)
Method: as §1

T2 sequence (P26663 2420-2989 N2735C): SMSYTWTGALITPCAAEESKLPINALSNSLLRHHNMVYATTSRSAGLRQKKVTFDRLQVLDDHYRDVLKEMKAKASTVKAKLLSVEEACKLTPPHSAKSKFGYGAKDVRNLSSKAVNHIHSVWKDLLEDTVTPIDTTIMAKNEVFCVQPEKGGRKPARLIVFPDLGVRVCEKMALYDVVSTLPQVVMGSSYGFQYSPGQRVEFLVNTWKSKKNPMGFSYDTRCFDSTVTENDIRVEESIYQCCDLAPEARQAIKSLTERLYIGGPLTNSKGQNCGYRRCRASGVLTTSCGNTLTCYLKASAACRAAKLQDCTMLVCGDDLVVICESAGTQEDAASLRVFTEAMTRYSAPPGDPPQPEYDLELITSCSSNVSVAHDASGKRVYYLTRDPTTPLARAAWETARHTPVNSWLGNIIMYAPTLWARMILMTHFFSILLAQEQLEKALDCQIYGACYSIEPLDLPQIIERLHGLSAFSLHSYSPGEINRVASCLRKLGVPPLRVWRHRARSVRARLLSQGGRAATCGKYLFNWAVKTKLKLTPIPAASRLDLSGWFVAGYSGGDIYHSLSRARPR
T1 sequence (Q9WMX2 2420-2989 I2782V): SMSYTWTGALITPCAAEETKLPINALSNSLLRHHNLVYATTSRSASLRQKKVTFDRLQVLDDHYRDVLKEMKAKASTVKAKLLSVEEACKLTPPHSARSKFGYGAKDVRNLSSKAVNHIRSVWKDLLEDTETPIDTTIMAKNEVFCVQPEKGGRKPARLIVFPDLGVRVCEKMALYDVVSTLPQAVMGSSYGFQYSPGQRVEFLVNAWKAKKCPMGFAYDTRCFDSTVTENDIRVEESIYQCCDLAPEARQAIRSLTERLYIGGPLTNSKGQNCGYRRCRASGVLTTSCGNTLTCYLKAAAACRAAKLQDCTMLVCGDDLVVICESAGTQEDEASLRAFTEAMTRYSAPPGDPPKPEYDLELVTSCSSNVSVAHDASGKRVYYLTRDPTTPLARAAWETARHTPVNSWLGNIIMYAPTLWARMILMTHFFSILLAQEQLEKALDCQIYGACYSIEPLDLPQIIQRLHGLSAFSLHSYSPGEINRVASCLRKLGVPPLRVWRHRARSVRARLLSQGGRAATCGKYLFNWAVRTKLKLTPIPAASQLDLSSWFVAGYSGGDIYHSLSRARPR
T7 sequence (P26663 2420-2989): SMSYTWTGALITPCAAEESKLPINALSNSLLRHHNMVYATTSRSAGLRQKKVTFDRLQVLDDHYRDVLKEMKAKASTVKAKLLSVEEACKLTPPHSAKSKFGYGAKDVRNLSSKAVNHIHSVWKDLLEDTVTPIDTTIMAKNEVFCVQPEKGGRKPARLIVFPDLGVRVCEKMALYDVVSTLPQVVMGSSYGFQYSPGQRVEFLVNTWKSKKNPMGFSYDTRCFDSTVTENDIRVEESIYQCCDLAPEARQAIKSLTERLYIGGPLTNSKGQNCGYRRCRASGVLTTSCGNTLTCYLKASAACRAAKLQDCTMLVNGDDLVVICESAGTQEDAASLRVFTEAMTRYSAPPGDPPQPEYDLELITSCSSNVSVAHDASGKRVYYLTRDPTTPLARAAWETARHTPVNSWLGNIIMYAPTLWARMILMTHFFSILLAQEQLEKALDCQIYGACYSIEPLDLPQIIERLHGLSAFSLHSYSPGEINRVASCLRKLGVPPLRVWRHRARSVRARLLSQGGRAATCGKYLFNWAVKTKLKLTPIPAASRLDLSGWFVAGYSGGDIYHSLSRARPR
T6 sequence (Q9WMX2 2420-2989 C2735N): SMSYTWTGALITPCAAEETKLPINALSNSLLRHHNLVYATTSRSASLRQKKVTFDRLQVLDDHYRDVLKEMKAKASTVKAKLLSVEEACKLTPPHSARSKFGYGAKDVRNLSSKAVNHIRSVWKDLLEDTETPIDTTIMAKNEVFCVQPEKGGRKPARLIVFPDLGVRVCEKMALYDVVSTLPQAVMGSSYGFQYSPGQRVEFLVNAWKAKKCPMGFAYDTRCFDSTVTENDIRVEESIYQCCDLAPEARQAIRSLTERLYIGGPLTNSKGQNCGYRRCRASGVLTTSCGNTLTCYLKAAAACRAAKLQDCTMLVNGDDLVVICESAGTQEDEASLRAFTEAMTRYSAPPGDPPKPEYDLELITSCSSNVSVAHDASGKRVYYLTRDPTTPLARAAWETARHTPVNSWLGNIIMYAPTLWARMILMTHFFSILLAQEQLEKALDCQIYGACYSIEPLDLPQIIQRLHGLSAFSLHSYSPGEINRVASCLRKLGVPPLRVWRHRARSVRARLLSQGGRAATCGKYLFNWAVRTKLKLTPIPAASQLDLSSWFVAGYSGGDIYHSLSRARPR
T5 sequence (Q9WMX2 2420-2989 M2833I): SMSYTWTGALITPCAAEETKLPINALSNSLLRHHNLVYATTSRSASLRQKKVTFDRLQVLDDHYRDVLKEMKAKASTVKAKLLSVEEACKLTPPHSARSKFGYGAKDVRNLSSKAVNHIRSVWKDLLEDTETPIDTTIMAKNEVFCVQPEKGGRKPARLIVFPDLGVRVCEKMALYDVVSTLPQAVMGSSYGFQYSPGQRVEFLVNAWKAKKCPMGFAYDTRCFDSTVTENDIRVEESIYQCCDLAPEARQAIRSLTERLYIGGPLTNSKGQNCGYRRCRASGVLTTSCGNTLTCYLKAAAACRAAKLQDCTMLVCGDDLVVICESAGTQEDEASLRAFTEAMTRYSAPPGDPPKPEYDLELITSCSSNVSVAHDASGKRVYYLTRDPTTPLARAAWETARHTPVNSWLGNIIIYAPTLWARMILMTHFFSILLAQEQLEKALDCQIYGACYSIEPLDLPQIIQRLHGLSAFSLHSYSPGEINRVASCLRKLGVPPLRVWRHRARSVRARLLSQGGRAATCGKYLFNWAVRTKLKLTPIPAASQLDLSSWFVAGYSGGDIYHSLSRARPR
T3 sequence (Q9WMX2 2420-2989 M2833V): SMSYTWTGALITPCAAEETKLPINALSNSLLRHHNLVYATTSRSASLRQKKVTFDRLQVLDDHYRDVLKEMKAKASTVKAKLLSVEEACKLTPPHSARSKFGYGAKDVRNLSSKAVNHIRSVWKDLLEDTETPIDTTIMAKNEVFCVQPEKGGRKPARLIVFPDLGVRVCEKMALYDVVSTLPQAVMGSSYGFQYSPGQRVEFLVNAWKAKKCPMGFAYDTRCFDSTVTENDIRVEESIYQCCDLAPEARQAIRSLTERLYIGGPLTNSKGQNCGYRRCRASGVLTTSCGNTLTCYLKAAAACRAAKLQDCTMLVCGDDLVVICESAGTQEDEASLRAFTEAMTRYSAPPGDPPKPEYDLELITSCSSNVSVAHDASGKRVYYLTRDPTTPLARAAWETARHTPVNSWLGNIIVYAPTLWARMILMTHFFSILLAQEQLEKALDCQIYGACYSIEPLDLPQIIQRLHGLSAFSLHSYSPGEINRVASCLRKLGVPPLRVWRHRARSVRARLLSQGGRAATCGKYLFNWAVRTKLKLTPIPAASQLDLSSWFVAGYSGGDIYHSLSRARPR
T4 sequence (Q9WMX2 2420-2989 C2735F): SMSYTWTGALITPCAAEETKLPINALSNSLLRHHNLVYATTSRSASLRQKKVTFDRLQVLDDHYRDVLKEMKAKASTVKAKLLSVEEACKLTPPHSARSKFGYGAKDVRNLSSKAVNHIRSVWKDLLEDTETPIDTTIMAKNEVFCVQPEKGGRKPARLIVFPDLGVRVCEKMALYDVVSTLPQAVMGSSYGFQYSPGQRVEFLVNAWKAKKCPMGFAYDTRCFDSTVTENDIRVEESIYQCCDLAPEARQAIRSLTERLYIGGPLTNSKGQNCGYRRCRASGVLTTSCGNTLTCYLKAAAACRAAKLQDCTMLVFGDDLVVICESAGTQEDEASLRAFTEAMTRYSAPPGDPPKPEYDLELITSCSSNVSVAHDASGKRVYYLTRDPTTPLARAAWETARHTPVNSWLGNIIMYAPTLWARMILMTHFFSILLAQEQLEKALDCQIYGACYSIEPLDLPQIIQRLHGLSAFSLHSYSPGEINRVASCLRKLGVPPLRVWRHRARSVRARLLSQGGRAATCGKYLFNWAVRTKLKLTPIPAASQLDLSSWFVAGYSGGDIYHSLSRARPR

With CNC(=O)c1c(-c2ccc(F)cc2)oc2cc(N(CCO)S(C)(=O)=O)c(C3CC3)cc12 [HCV-796, 5-cyclopropyl-2-(4-fluorophenyl)-6-[(2-hydroxyethyl)(methylsulfonyl)amino]-N-methyl-1-benzofuran-3-carboxamide] the EC50 (1b, BB7-C316N replicon) was 220 ± 110 nM, the solubility (physchem) was 56 µM (≈ 25 µg/mL) and the IC50 ([1]; BB7-I363V enzyme) was 60 ± 10 nM. The “Susceptibility Relative to Wild type Enzyme” value ([1]; BB7-I363V vs BB7 (C316)) was 1.5-fold less, the “Susceptibility Relative to Wild type Enzyme” value [2] was 1.7-fold more and the IC50 (HCV NS5B enzyme BK-N316C) was 0.031 ± 0.004 µM. The “Susceptibility Relative to Wild type Enzyme” value (HCV NS5B enzyme BK-N316C; BK-N316C vs wild type BK (N316)) was 4.5 fold more and 4.5-fold more, the “Susceptibility Relative to Wild type Enzyme” value [3] was 8-fold less and the “Susceptibility Relative to Wild type Enzyme” value [4] was 1.4-fold more. The IC50 [5] was 0.028 ± 0.002 µM, the IC50 [6] was 1.51 ± 0.419 µM and the IC50 [7] was 0.024 ± 0.006 µM. The IC50 [8] was 0.081 ± 0.042 µM, the “Susceptibility Relative to Wild type Enzyme” value [9] was 2-fold less and the IC50 [10] was 140 ± 50 nM. The “Susceptibility Relative to Wild type Enzyme” value [11] was 124-fold less.
